In PubChem BioAssay (NCI):
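Five compound concentrations were applied to cells in 96-well plates for 48 hours; endpoints were derived by simple linear interpolation of the resulting dose-response curve. GI50 is the concentration that inhibits growth by half. Definition used: TGI = concentration required for complete inhibition of growth.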

Columns and labels:
Experiment in all cases: NCI tumour cell line growth inhibition, 48 h
DMS 114 small cell lung = test system: DMS 114 small cell lung
HCT-116 colon = test system: HCT-116 colon
DMS 273 small cell lung = test system: DMS 273 small cell lung
KM20L2 colon = test system: KM20L2 colon
HOP-18 NSCLC = test system: HOP-18 NSCLC
XF 498 CNS = test system: XF 498 CNS
DLD-1 colon = test system: DLD-1 colon
P388 leukemia = test system: P388 leukemia
SNB-78 CNS = test system: SNB-78 CNS
SN12K1 renal = test system: SN12K1 renal
P388/ADR leukemia = test system: P388/ADR leukemia
M19-MEL melanoma = test system: M19-MEL melanoma
BT-549 breast = test system: BT-549 breast
M14 melanoma = test system: M14 melanoma
HS 578T breast = test system: HS 578T breast
MDA-MB-435 = test system: MDA-MB-435

COc1cccc2c1C(=O)c1c(O)c3c(c(O)c1C2=O)CC(O)(C(C)=O)CC3O (stereo not drawn)
TGI (DMS 114 small cell lung): 24.1 µM | TGI (HCT-116 colon): 10.1 µM | TGI (DMS 273 small cell lung): 15.6 µM | TGI (KM20L2 colon): 48.2 µM | TGI (HOP-18 NSCLC): 41.5 µM | TGI (XF 498 CNS): 1.31 µM | TGI (DLD-1 colon): 40.9 µM | TGI (P388 leukemia): 9.69 µM | TGI (SNB-78 CNS): 48 µM | TGI (SN12K1 renal): 10.5 µM | TGI (P388/ADR leukemia): 9.23 µM | TGI (M19-MEL melanoma): 15.7 µM

O=c1[nH]c(-c2ccc(Cl)cc2)cc2ccsc12
TGI (HCT-116 colon): > 100 µM | TGI (BT-549 breast): > 100 µM | TGI (M14 melanoma): > 100 µM

CCOC(=O)C1=C(C)N(c2ccc(Cl)cc2)C2(O)C=CC(Nc3ccc(Cl)cc3)=C3C(=O)N(c4ccccc4)C(=O)C312 (stereo not drawn)
TGI (HS 578T breast): > 100 µM | TGI (MDA-MB-435): 5.29 µM | TGI (BT-549 breast): 4.69 µM | TGI (M14 melanoma): 19.7 µM

CN1CCN(Cn2nc(-c3cc(F)c(Cl)cc3Cl)oc2=S)CC1
GI50 (HS 578T breast): 28.5 µM | TGI (HS 578T breast): 86.8 µM | GI50 (MDA-MB-435): 40.5 µM | TGI (MDA-MB-435): > 100 µM
